# Data taken from patent US20120088661A1, “FUNGICIDAL MIXTURES” (BASF SE, priority 2009, published 2012).
# Where two headings read alike, the source gives them in different places.
# Assays:
# Botrytis cinerea [1] = assay: Use Example M2: activity against the gray mold pathogen Botrytis cinerea in the microtiter test (Botrci); type: cell-based
# Phytophthora infestans = assay: microbe, parasite or virus in culture; type: cell-based; details: for inhibition of growth at 0.016 ppm: read-out: Observed effect, 0.016 ppm; for inhibition of growth at 1 ppm: read-out: Observed effect, 1 ppm
# Septoria glycines = assay: Use Example M8: activity against Septoria glycines in the microtiter test (Septgl); type: cell-based
# Colleotrichum truncatum = assay: Use Example M9: activity against Colleotrichum truncatum in the microtiter test (Colltr); type: cell-based
# Botrytis cinerea [2] = assay: Use Example G2: greenhouse, activity against grey mold on bell pepper leaves caused by Botrytis cinerea, 1 day protective application (Botrci P1); type: in vivo, Botrytis cinerea on bell pepper seedlings
# Experimental: (§1) The active compounds were prepared separately or jointly as a stock solution with 25 mg of active compound which was made up to 10 ml using a mixture of acetone and/or DMSO and the emulsifier Wettol EM 31 (wetting agent having emulsifying and dispersing action based on ethoxylated alkylphenols) in a volume ratio of solvent:emulsifier of 99:1. The mixture was then made up with water to 100 ml. This stock solution was diluted with the solvents/emulsifier/water mixture described to give the active compound concentrations stated below. Alternatively, the active compounds were used as commercial finished formulation and diluted with water to the stated active compound concentration. The active compound orysastrobin was used as a commercially available formulation, and diluted with water with reference to the active compound.
# (§2) The visually determined values for the percentage of infected leaf area were initially converted into a mean value and then converted into efficacies in % of the untreated control. An efficacy of 0 means the same degree of infection as in the untreated control, an efficacy of 100 means 0% infection. The expected efficacies for the active compound combinations were determined using Colby's formula (Colby, S. R. “Calculating synergistic and antagonistic responses of herbicide combinations”, Weeds, 15, pp. 20-22, 1967) and compared to the observed efficacies.
# Bell pepper seedlings were, after 2-3 leaves were well developed, sprayed to run off point with an aqueous suspension having the active compound concentrations stated below. The next day, the treated plants were inoculated with a spore suspension of Botrytis cinerea in a 2% biomalt solution. The test plants were then placed in a dark climatized chamber at 22 to 24° C. and high atmospheric humidity. After 5 days, the extent of the fungal infection on the leaves could be determined visually in %.
# Septoria tritici = assay: Use Example G5: greenhouse, protective activity against Septoria leaf blotch of wheat caused by Septoria tritici (Septtr P1); type: in vivo, Septoria tritici on wheat seedlings
# Experimental: as §1, §2
# Leaves of potted wheat seedlings were sprayed to run off point with an aqueous suspension having the active compound concentration stated below. 24 hours after the spray coating had dried on, they were inoculated with an aqueous spore suspension of Septoria tritici. The test plants were then placed in a greenhouse at temperatures between 18 and 22° C. and a relative atmospheric humidity close to 100% for four days and then at temperatures between 18 and 22° C. and an atmospheric humidity of about 70%. After 21 days, the extent of the development of the disease was determined visually in % infection of the total leaf area.
# Puccinia recondita = assay: Use Example G3: greenhouse, protective activity against Puccinia recondita on wheat (brown rust of wheat) (Puccrt P1); type: in vivo, Puccinia recondita on wheat seedlings
# Experimental: as §1, with “The active compound orysastrobin was used as a commercially available formulation, and diluted with water with reference to the active compound.” left out
# The visually determined values for the percentage of infected leaf area were initially converted into a mean value and then converted into efficacies in % of the untreated control. […] The expected efficacies for the active compound combinations were determined using Colby's formula (Colby, S. R. “Calculating synergistic and antagonistic responses of herbicide combinations”, Weeds, 15, pp. 20-22, 1967) and compared to the observed efficacies.
# Leaves of potted wheat seedlings were sprayed to run off point with an aqueous suspension having the active compound concentration stated below. […] The extent of rust fungus development on the leaves was then determined visually.
# Phakopsora pachyrhizi = assay: Use Example G4: greenhouse, curative activity against soybean rust caused by Phakopsora pachyrhizi (Phakpa K4); type: in vivo, Phakopsora pachyrhizi on soybean seedlings
# Experimental: as §1, §2
# Leaves of potted soybean seedlings were inoculated with a spore suspension of soybean rust (Phakpsora pachyrhizi). The pots were then placed in a chamber of high atmospheric humidity (90 to 95%) and 20 to 24° C. for 24 hours. During this time, the spores germinated and the germ tubes penetrated into the leaf tissue. The infected plants were then cultivated further in a greenhouse at temperatures between 23 and 27° C. and 60 to 80% relative atmospheric humidity. After three days, the plants were sprayed to run off point with the active compound solution described above at the active compound concentration stated below. After the spray coating had dried on, the test plants were cultivated in a greenhouse at temperatures between 23 and 27° C. and 60 to 80% relative atmospheric humidity for a further 10 days. The extent of the rust fungus development on the leaves was then determined visually in %.
# Alternaria solani = type: in vivo, Alternaria solani on tomato plants; details: 16 ppm
# [3] = Septoria glycines, 0.063 ppm, read-out: Observed effect
# [4] = Septoria glycines, 0.25 ppm, read-out: Observed effect
# [5] = Septoria glycines, 0.016 ppm, read-out: Observed effect
# [6] = Septoria glycines, read-out: Observed effect
# [7] = Septoria glycines, 1 ppm, read-out: Observed effect
molecule,measurement,setting,value
"1-[trans-2-(2,4-difluorophenyl)-3-(2-fluorophenyl)oxiranylmethyl]-5-methylsulfanyl-1H-[1,2,4]triazole [Example I-6]",Observed effect,Botrytis cinerea [1]; 4 ppm,9%
"2-[trans-2-(3,4-difluorophenyl)-3-(2-trifluoromethylphenyl)oxiranylmethyl]-2,4-dihydro-[1,2,4]triazole-3-thione [Example I-4]",Observed effect,Phytophthora infestans; 63 ppm,31%
same,Observed effect,Septoria glycines; 16 ppm,5%
same,Observed effect,Septoria glycines; 63 ppm,23%
same,Observed effect,Colleotrichum truncatum; 63 ppm,26%
"2-[trans-3-(2-chlorophenyl)-2-(2,4-difluorophenyl)oxiranylmethyl]-2,4-dihydro-[1,2,4]triazole-3-thione [Example I-1]",Observed effect,Phytophthora infestans; 1 ppm,3%
same,Observed effect,Phytophthora infestans; 16 ppm,14%
same,Observed effect,Phytophthora infestans; 63 ppm,53%
same,Observed effect,Septoria glycines; 16 ppm,30%
same,Observed effect,Septoria glycines; 63 ppm,61%
same,Observed effect,Colleotrichum truncatum; 1 ppm,5%
same,Observed effect,Colleotrichum truncatum; 16 ppm,6%
same,Observed effect,Colleotrichum truncatum; 63 ppm,30%
same,Observed effect,Botrytis cinerea [2]; 4 ppm,2%
same,Observed effect,Septoria tritici; 4 ppm,41%
"2-[trans-3-(2-chlorophenyl)-2-(3,4-difluorophenyl)oxiranylmethyl]-2H-[1,2,4]triazole-3-thiol [Example I-3]",Observed effect,Phytophthora infestans; 63 ppm,31%
same,Observed effect,Botrytis cinerea [1]; 4 ppm,8%
same,Observed effect,Botrytis cinerea [1]; 63 ppm,25%
"Fc1ccc([C@]2(Cn3cncn3)O[C@H]2c2ccccc2Cl)cc1 (racemic) [II-1, epoxiconazole]",inhibition of growth at […],Septoria glycines; [3],2%
"Cc1ccccc1[C@@H]1O[C@]1(Cn1nc[nH]c1=S)c1ccc(F)c(F)c1 (relative stereo) [Example I-2, 2-[trans-2-(3,4-difluorophenyl)-3-o-tolyloxiranylmethyl]-2,4-dihydro-[1,2,4]triazole-3-thione]",Observed effect,Septoria glycines; 63 ppm,40%
same,Observed effect,Colleotrichum truncatum; 63 ppm,38%
"CSc1ncnn1C[C@]1(c2ccc(F)c(F)c2)O[C@H]1c1ccccc1Cl (relative stereo) [Example I-5, 1-[trans-3-(2-chlorophenyl)-2-(3,4-difluorophenyl)oxiranylmethyl]-5-methylsulfanyl-1H-[1,2,4]triazole]",Observed effect,Botrytis cinerea [1]; 16 ppm,9%
"CSc1ncnn1C[C@]1(c2ccc(F)cc2F)O[C@H]1c1ccccc1Cl (relative stereo) [Example I-7, 1-[trans-3-(2-chlorophenyl)-2-(2,4-difluorophenyl)oxiranylmethyl]-5-methylsulfanyl-1H-[1,2,4]triazole]",Observed effect,Botrytis cinerea [1]; 16 ppm,25%
"N#CSc1ncnn1C[C@]1(c2ccc(F)cc2F)O[C@H]1c1ccccc1Cl (relative stereo) [Example I-8, 1-[trans-3-(2-chlorophenyl)-2-(2,4-difluorophenyl)oxiranylmethyl]-5-thiocyanato-1H-[1,2,4]triazole]",Observed effect,Phytophthora infestans; 4 ppm,7%
same,Observed effect,Botrytis cinerea [1]; 16 ppm,19%
"CC1(C)CCC(Cc2ccc(Cl)cc2)C1(O)Cn1cncn1 (stereo not drawn) [II-2, metconazole]",inhibition of growth at […],Septoria glycines; [4],19%
"CC(C)(C)C(O)(CCc1ccc(Cl)cc1)Cn1cncn1 (stereo not drawn) [II-3, tebuconazole]",Observed effect,Botrytis cinerea [2]; 1 ppm,0%
"CO/N=C(/C(=O)OC)c1ccccc1COc1ccccc1C [II-8, kresoxim-methyl]",Observed effect,Colleotrichum truncatum; 1 ppm,27%
same,Observed effect,Colleotrichum truncatum; 4 ppm,37%
"COC(=O)N(OC)c1ccccc1COc1ccn(-c2ccc(Cl)cc2)n1 [II-9, pyraclostrobin]",inhibition of growth at 0.016 ppm,Phytophthora infestans; Phytophthora infestans,13%
same,Observed effect,Botrytis cinerea [1]; 0.016 ppm,8%
same,inhibition of growth at 0.016 ppm,Septoria glycines; [5],69%
same,Observed effect,Colleotrichum truncatum; 0.016 ppm,7%
"CNC(=O)/C(=N/OC)c1ccccc1CO/N=C(C)/C(=N/OC)C(/C)=N/OC [II-10, orysastrobin]",Observed effect,Phytophthora infestans; 1 ppm,22%
same,Observed effect,Botrytis cinerea [1]; 1 ppm,13%
same,Observed effect,Colleotrichum truncatum; 4 ppm,29%
"COCC(=O)N(c1c(C)cccc1C)C(C)C(=O)OC (stereo not drawn) [II-14, metalaxyl]",inhibition of growth at 4 ppm,"Septoria glycines; Septoria glycines, 4 ppm, read-out: Observed effect",18%
"CC(Cc1ccc(C(C)(C)C)cc1)CN1C[C@@H](C)O[C@@H](C)C1 (stereo partly drawn) [II-15, fenpropimorph]",inhibition of growth at 1 ppm,Phytophthora infestans; Phytophthora infestans,26%
same,inhibition of growth at 0.004 ppm,Septoria glycines; [6],1%
same,inhibition of growth at […],Septoria glycines; [4],71%
"CC(C)NC(=O)N1CC(=O)N(c2cc(Cl)cc(Cl)c2)C1=O [II-17, iprodione]",inhibition of growth at 1 ppm,Septoria glycines; [7],0%
"N#Cc1c(Cl)c(Cl)c(Cl)c(C#N)c1Cl [II-21, chlorothalonil]",Observed effect,Botrytis cinerea [1]; 1 ppm,40%
same,inhibition of growth at […],Septoria glycines; [3],6%
same,Observed effect,Septoria tritici; 4 ppm,0%
"O=C(Nc1ccccc1-c1ccc(Cl)cc1)c1cccnc1Cl [II-24, boscalid]",inhibition of growth at 16 ppm,"Phytophthora infestans; Phytophthora infestans, read-out: Observed effect, 16 ppm",20%
same,inhibition of growth at 0.016 ppm,Septoria glycines; [5],10%
same,inhibition of growth at 0.04 ppm,"Septoria glycines; Septoria glycines, 0.04 ppm, read-out: Observed effect",9%
same,Observed effect,Puccinia recondita; 1 ppm,13%
"Cc1ccc(C(C)NC(=O)[C@@H](NC(=O)OC(C)C)C(C)C)cc1 (stereo partly drawn) [II-35, iprovalicarb]",Observed effect,Septoria glycines; 1 ppm,3%
"Cc1cc(C2CC2)nc(Nc2ccccc2)n1 [II-36, cyprodinil]",Observed effect,Septoria tritici; 4 ppm,0%
"N#Cc1c[nH]cc1-c1cccc2c1OC(F)(F)O2 [II-38, fludioxonil]",inhibition of growth at 1 ppm,Phytophthora infestans; Phytophthora infestans,27%
"O=[N+]([O-])c1cc(C(F)(F)F)c(Cl)c([N+](=O)[O-])c1Nc1ncc(C(F)(F)F)cc1Cl [II-40, fluazinam]",inhibition of growth at 1 ppm,Phytophthora infestans; Phytophthora infestans,24%
same,inhibition of growth at 0.016 ppm,Septoria glycines; [5],7%
same,inhibition of growth at 1 ppm,Septoria glycines; [7],24%
"CCCN(CCOc1c(Cl)cc(Cl)cc1Cl)C(=O)n1ccnc1 [II-46, prochloraz]",inhibition of growth at 0.001 ppm,Septoria glycines; [6],11%
same,Observed effect,Phakopsora pachyrhizi; 1 ppm,7%
same,Observed effect,Septoria tritici; 1 ppm,0%
"N#Cc1sc2c(=O)c3ccccc3c(=O)c=2sc1C#N [II-47, dithianon]",inhibition of growth at 0.004 ppm,Septoria glycines; [6],3%
same,inhibition of growth at 0.016 ppm,Septoria glycines; [5],37%
same,Observed effect,Colleotrichum truncatum; 0.016 ppm,3%
"CO/C=C(/C(=O)OC)c1ccccc1Oc1cc(Oc2ccccc2C#N)ncn1 [II-49, azoxystrobin]",Observed effect,Septoria glycines; 0.016 ppm,20%
"CO/N=C(/C1=NOCCO1)c1ccccc1Oc1ncnc(Oc2ccccc2Cl)c1F [II-57, fluoxastrobin]",Observed effect,Phakopsora pachyrhizi; 1 ppm,15%
COC(=O)C(C)N(C(=O)Cc1ccccc1)c1c(C)cccc1C (stereo not drawn) [benalaxyl],Observed effect,Alternaria solani,2%
same,Observed effect,Septoria tritici; 250 ppm,0%
O=C1C2CC=CCC2C(=O)N1SC(Cl)(Cl)Cl (stereo not drawn) [captan],Observed effect,Phakopsora pachyrhizi; 1 ppm,0%
same,Observed effect,Phakopsora pachyrhizi; 4 ppm,0%
same,Observed effect,Septoria tritici; 16 ppm,0%
CCNC(=O)NC(=O)/C(C#N)=N/OC [cymoxanil],inhibition of growth at 16 ppm,"Septoria glycines; Septoria glycines, 16 ppm, read-out: Observed effect",27%
OC(c1ccc(Cl)cc1)(c1cncnc1)c1ccccc1Cl (stereo not drawn) [fenarimol],inhibition of growth at 0.016 ppm,Phytophthora infestans; Phytophthora infestans,5%
same,inhibition of growth at 1 ppm,Phytophthora infestans; Phytophthora infestans,28%
same,inhibition of growth at 0.016 ppm,Septoria glycines; [5],11%
same,inhibition of growth at 1 ppm,Septoria glycines; [7],39%
COc1ccc(/C(=C\C(=O)N2CCOCC2)c2ccc(F)cc2)cc1OC [flumorph],Observed effect,Septoria glycines; 16 ppm,21%
CC(C)NC(=O)N1CC(=O)N(c2cc(Cl)cc(Cl)c2)C1=O [iprodion],Observed effect,Colleotrichum truncatum; 1 ppm,9%
mancozeb [II-18],Observed effect,Alternaria solani,0%
same,Observed effect,Botrytis cinerea [2]; 250 ppm,15%
same,Observed effect,Puccinia recondita; 4 ppm,5%
same,Observed effect,Phakopsora pachyrhizi; 16 ppm,7%
same,Observed effect,Phakopsora pachyrhizi; 63 ppm,0%
same,Observed effect,Septoria tritici; 16 ppm,3%
same,Observed effect,Septoria tritici; 63 ppm,18%
